The substances below were run against T1, Glucokinase (Homo sapiens, UniProt P35557) (assay: Glucokinase activation assay (NADPH absorbance at 340 nm)). Details: glucokinase (ProteinOne Inc.), 5 mM D(+)-glucose, 24° C., 90 minutes.
T1 construct: purchased ProteinOne Inc
T1 sequence (P35557 1-465): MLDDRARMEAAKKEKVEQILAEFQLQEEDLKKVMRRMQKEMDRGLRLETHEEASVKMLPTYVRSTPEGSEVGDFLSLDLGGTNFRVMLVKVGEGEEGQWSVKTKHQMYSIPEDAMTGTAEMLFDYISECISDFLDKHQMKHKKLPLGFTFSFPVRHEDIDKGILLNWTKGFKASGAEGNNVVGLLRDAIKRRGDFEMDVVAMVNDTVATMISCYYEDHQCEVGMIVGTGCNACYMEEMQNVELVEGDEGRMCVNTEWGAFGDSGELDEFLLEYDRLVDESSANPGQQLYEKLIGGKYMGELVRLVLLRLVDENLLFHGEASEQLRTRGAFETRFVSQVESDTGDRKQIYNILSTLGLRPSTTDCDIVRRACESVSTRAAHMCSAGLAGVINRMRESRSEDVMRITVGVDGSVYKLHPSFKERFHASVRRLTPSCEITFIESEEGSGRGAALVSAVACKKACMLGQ
Type: biochemical
Description: The amounts of glucokinase activation were determined by measuring the levels of NADPH (the final metabolite of glucose through glucokinase-mediated phospho-rylation) and then calculating to glucokinase activities.
Glucokinase (ProteinOne Inc.) was added, in the concentration of 100 ng/uL, to a enzyme-reaction medium (25 mM HEPES pH 7, 25 mM KCL, 1 mM MgCl, 5 mM D(+)-glucose, 1 mM ATP, 1 mM NADP, 1 mM DTT, and 2.5 u/mL G6PDH). Each compound in predetermined concentrations was added to the enzyme-reaction medium and then absorbance (First Absorbance) was measured at 340 nm of wavelength. After measuring the first absorbance, each reaction mixture was incubated at 24° C. for 90 minutes and then absorbance (Second Absorbance) was re-measured at 340 nm of wavelength. Using changes between First Absorbance and Second Absorbance, glucokinase activity was calculated. In the calculation, a maximum activity of the test compound (Emax), in comparison to the control group (no treatment of compound) was determined and then EC50 was calculated using the software for statistical analysis “Prism”, based on the activity-changes according to concentrations of the test compounds.
The amounts of glucokinase activation of the compounds of Comparative Examples 1 and 2 were determined, in accordance with the same procedures as in Test Example 1.

Row | Substance | EC50
1 | 3-[trans-2-(2,4-difluorophenyl)vinyl]-5-(2-methoxy-(1S)-methyl-ethoxy)-N-(1-methyl-1H-pyrazol-3-yl)-benzamide [Example 35] | 109 nM
2 | 3-[trans-2-(2,4-difluorophenyl)vinyl]-5-(2-methoxy-(1S)-methyl-ethoxy)-N-(pyrazin-2-yl)-benzamide [Example 56] | 301 nM
3 | 3-[trans-2-(2,5-difluorophenyl)vinyl]-5-(2-methoxy-(1S)-methyl-ethoxy)-N-(1-methyl-1H-pyrazol-3-yl)-benzamide [Example 36] | 200 nM
4 | 3-[trans-2-(2,5-difluorophenyl)vinyl]-5-(2-methoxy-(1S)-methyl-ethoxy)-N-(pyrazin-2-yl)-benzamide [Example 57] | 283 nM
5 | 3-[trans-2-(2,6-difluorophenyl)vinyl]-5-(2-methoxy-(1S)-methyl-ethoxy)-N-(pyrazin-2-yl)-benzamide [Example 58] | 212 nM
6 | 3-[trans-2-(2,6-dimethoxyphenyl)vinyl]-5-(2-methoxy-(1S)-methyl-ethoxy)-N-(5-fluorothiazol-2-yl)-benzamide [Example 29] | 128 nM
7 | 3-[trans-2-(2-bromophenyl)vinyl]-5-(2-methoxy-(1S)-methyl-ethoxy)-N-(1-methyl-1H-pyrazol-3-yl)-benzamide [Example 43] | 322 nM
8 | 3-[trans-2-(2-chlorophenyl)vinyl]-5-(2-methoxy-(1S)-methyl-ethoxy)-N-(pyrazin-2-yl)-benzamide [Example 53] | 503 nM
9 | 3-[trans-2-(2-fluorophenyl)vinyl]-5-(2-methoxy-(1S)-methyl-ethoxy)-N-(pyrazin-2-yl)-benzamide [Example 51] | 238 nM
10 | 3-[trans-2-(2-methoxyphenyl)vinyl]-5-(2-methoxy-(1S)-methyl-ethoxy)-N-(1-methyl-1 H-pyrazol-3-yl)-benzamide [Example 42] | 115 nM
11 | 3-[trans-2-(2-methoxyphenyl)vinyl]-5-(2-methoxy-(1S)-methyl-ethoxy)-N-(1-methyl-1H-pyrazol-3-yl)-benzamide [Example 83] | 115 nM
12 | 3-[trans-2-(2-methoxyphenyl)vinyl]-5-(2-methoxy-(1S)-methyl-ethoxy)-N-(pyrazin-2-yl)-benzamide [Example 48] | 281 nM
13 | 3-[trans-2-(2-nitrophenyl)vinyl]-5-(2-methoxy-(1S)-methyl-ethoxy)-N-(1-methyl-1H-pyrazol-3-yl)-benzamide [Example 32] | 284 nM
14 | 3-[trans-2-(3,4-dimethoxyphenyl)vinyl]-5-(2-methoxy-(1S)-methyl-ethoxy)-N-(5-fluorothiazol-2-yl)-benzamide [Example 30] | 132 nM
15 | 3-[trans-2-(3,5-dimethoxyphenyl)vinyl]-5-(2-methoxy-(1S)-methyl-ethoxy)-N-(pyrazin-2-yl)-benzamide [Example 50] | 311 nM
16 | 3-[trans-2-(3-bromophenyl)vinyl]-5-(2-methoxy-(1S)-methyl-ethoxy)-N-(pyrazin-2-yl)-benzamide [Example 59] | 377 nM
17 | 3-[trans-2-(3-chlorophenyl)vinyl]-5-(2-methoxy-(1S)-methyl-ethoxy)-N-(pyrazin-2-yl)-benzamide [Example 54] | 382 nM
18 | 3-[trans-2-(3-nitrophenyl)vinyl]-5-(2-methoxy-(1S)-methyl-ethoxy)-N-(5-fluorothiazol-2-yl)-benzamide [Example 20] | 123 nM
19 | 3-[trans-2-(4-bromophenyl)vinyl]-5-(2-methoxy-(1S)-methyl-ethoxy)-N-(1-methyl-1H-pyrazol-3-yl)-benzamide [Example 45] | 181 nM
20 | 3-[trans-2-(4-bromophenyl)vinyl]-5-(2-methoxy-(1S)-methyl-ethoxy)-N-(pyrazin-2-yl)-benzamide [Example 60] | 397 nM
21 | 3-[trans-2-(4-fluorophenyl)vinyl]-5-(2-methoxy-(1S)-methyl-ethoxy)-N-(1-methyl-1H-pyrazol-3-yl)-benzamide [Example 39] | 119 nM
22 | 3-[trans-2-(4-fluorophenyl)vinyl]-5-(2-methoxy-(1S)-methyl-ethoxy)-N-(pyrazin-2-yl)-benzamide [Example 52] | 420 nM
23 | 3-[trans-2-(4-methoxyphenyl)vinyl]-5-(2-methoxy-(1S)-methyl-ethoxy)-N-(1-methyl-1H-pyrazol-3-yl)-benzamide [Example 41] | 245 nM
24 | 3-[trans-2-(4-methoxyphenyl)vinyl]-5-(2-methoxy-(1S)-methyl-ethoxy)-N-(pyrazin-2-yl)-benzamide [Example 49] | 381 nM
25 | 3-[trans-2-(4-nitrophenyl)vinyl]-5-(2-methoxy-(1S)-methyl-ethoxy)-N-(5-fluorothiazol-2-yl)-benzamide [Example 21] | 336 nM
26 | 3-[trans-2-(4-nitrophenyl)vinyl]-5-(2-methoxy-(1S)-methyl-ethoxy)-N-(thiazol-2-yl)-benzamide [Example 15] | 127 nM
27 | 3-{2-[3-(2-(thiophen-2-yl)acetylamino)phenyl]ethyl}-5-(2-methoxy-(1S)-methyl-ethoxy)-N-(thiazol-2-yl)-benzamide [Example 129] | 271 nM
28 | 3-{2-[3-(3-ethyl-thio-ureido)phenyl]ethyl}-5-(2-methoxy-(1S)-methyl-ethoxy)-N-(thiazol-2-yl)-benzamide [Example 131] | 491 nM

More lines, now with the values ahead:

Row | EC50 | Substance
29 | 50.4 nM | 3-[trans-2-(2,3-dimethoxyphenyl)vinyl]-5-(2-methoxy-(1S)-methyl-ethoxy)-N-(thiazol-2-yl)-benzamide [Example 17]
30 | 70.2 nM | 3-[trans-2-(2,4-difluorophenyl)vinyl]-5-(2-methoxy-(1S)-methyl-ethoxy)-N-(5-fluorothiazol-2-yl)-benzamide [Example 25]
31 | 55.2 nM | 3-[trans-2-(2,4-difluorophenyl)vinyl]-5-(2-methoxy-(1S)-methyl-ethoxy)-N-(thiazol-2-yl)-benzamide [Example 10]
32 | 46.5 nM | 3-[trans-2-(2,5-difluorophenyl)vinyl]-5-(2-methoxy-(1S)-methyl-ethoxy)-N-(5-fluorothiazol-2-yl)-benzamide [Example 26]
33 | 30.9 nM | 3-[trans-2-(2,5-difluorophenyl)vinyl]-5-(2-methoxy-(1S)-methyl-ethoxy)-N-(thiazol-2-yl)-benzamide [Example 11]
34 | 79.8 nM | 3-[trans-2-(2-fluorophenyl)vinyl]-5-(2-methoxy-(1S)-methyl-ethoxy)-N-(1-methyl-1H-pyrazol-3-yl)-benzamide [Example 33]
35 | 65.6 nM | 3-[trans-2-(2-fluorophenyl)vinyl]-5-(2-methoxy-(1S)-methyl-ethoxy)-N-(5-fluorothiazol-2-yl)-benzamide [Example 22]
36 | 91.8 nM | 3-[trans-2-(2-methoxyphenyl)vinyl]-5-(2-methoxy-(1S)-methyl-ethoxy)-N-(5-fluorothiazol-2-yl)-benzamide [Example 82]
37 | 8.4 nM | 3-[trans-2-(2-methoxyphenyl)vinyl]-5-(2-methoxy-(1S)-methyl-ethoxy)-N-(thiazol-2-yl)-benzamide [Example 16]
38 | 52.1 nM | 3-[trans-2-(2-nitrophenyl)vinyl]-5-(2-methoxy-(1S)-methyl-ethoxy)-N-(5-fluorothiazol-2-yl)-benzamide [Example 19]
39 | 47.3 nM | 3-[trans-2-(3,5-dimethoxyphenyl)vinyl]-5-(2-methoxy-(1S)-methyl-ethoxy)-N-(5-fluorothiazol-2-yl)-benzamide [Example 31]
40 | 107 nM | 3-[trans-2-(3-chlorophenyl)vinyl]-5-(2-methoxy-(1S)-methyl-ethoxy)-N-(1-methyl-1H-pyrazol-3-yl)-benzamide [Example 47]
41 | 48.4 nM | 3-[trans-2-(3-fluorophenyl)vinyl]-5-(2-methoxy-(1S)-methyl-ethoxy)-N-(thiazol-2-yl)-benzamide [Example 7]
42 | 19.4 nM | 3-[trans-2-(3-nitrophenyl)vinyl]-5-(2-methoxy-(1S)-methyl-ethoxy)-N-(thiazol-2-yl)-benzamide [Example 14]
43 | 41.1 nM | 3-[trans-2-(4-fluorophenyl)vinyl]-5-(2-methoxy-(1S)-methyl-ethoxy)-N-(5-fluorothiazol-2-yl)-benzamide [Example 23]
44 | 86.4 nM | 3-[trans-2-(4-fluorophenyl)vinyl]-5-(2-methoxy-(1S)-methyl-ethoxy)-N-(thiazol-2-yl)-benzamide [Example 8]

— patent US20120178765A1, “NOVEL GLUCOKINASE ACTIVATORS AND PROCESSES FOR THE PREPARATION THEREOF” (YUHAN CORPORATION, priority 2009, published 2012)
